In KR20210134284A, “분갈 추출물 또는 이로부터 유래된 화합물을 포함하는 피부 개선용 조성물” (주식회사 엘지생활건강, priority 2018, dated 2020):

Key:
[1] = Anti-glycation activity using L-arginine and glucose; settings: 70℃, 4 h, 420 nm
[2] = tested on: RAW264.7 cells, NO production (생쥐의 대식세포인 RAW264.7 세포); test: NO production inhibition by GRIESS method in LPS-stimulated RAW264.7 cells (anti-inflammatory); format: cell-based; settings: Mus musculus, LPS 1 μg, 24 h, read-out: NO production inhibition rate
[3] = tested on: type Ⅰ collagen synthesis in human-derived fibroblasts (제1형 콜라겐; 인간 유래 섬유 아세포); test: Type I collagen synthesis promotion in human fibroblasts (PICP EIA kit); format: cell-based; settings: 48 h; for type I collagen production amount: negative control 150.2 ng/ml
[4] = DPPH free radical scavenging (antioxidant); settings: 37℃, 30 min, 520 nm, concentration removing 50% of free radicals
[5] = tested on: B-16 mouse melanoma cell (쥐의 멜라노마 세포); test: Melanin production inhibition (whitening), absorbance at 400 nm; format: cell-based; settings: 72 h, 3 days, relative to control, read-out: total melanin inhibition rate
[6] = Homo sapiens, Fibroblast, 10 ppm, relative to control, read-out: collagen production increase rate

SMILES | IC50 [4] [%w/v] | inhibition at 10 ppm [5] [%] | glycation inhibition rate ([1]; 10 ppm) [%] | type I collagen production amount ([3]; 10 ppm) [ng/mL] | activation at 10 ppm [3, 6] [%] | further results
N=C(N)NN [Aminoguanidine, reference compound] |  |  |  |  |  | glycation inhibition rate ([1]; 55 ppm): 48.12%
CNC(=N)NCCC[C@H](N)C(=O)O [L-NMMA, L-NG-monomethylarginine, reference compound] |  |  |  |  |  | inhibition at 10 ppm [2]: 30.6%
O=C1O[C@H]([C@@H](O)CO)C(O)=C1O [비타민C, reference compound] | 0.0005 |  |  |  |  | type I collagen production amount ([3]; 50 ppm): 210.9 ng/mL; activation at 50 ppm ([3]; Homo sapiens, Fibroblast, 50 ppm, relative to control, read-out: collagen production increase rate): 40.4%
OC[C@H]1O[C@@H](Oc2ccc(O)cc2)[C@H](O)[C@@H](O)[C@@H]1O [알부틴, arbutin, reference compound] |  |  |  |  |  | inhibition at 100 ppm ([5]; 100 ppm): 47.8%
COc1c(O[C@@H]2O[C@H](CO[C@@H]3OC[C@@H](O)[C@H](O)[C@H]3O)[C@@H](O)[C@H](O)[C@H]2O)cc2occ(-c3ccc(O)cc3)c(=O)c2c1O [화합물 1, tectorigenin 7-O-xylosylglucoside] | 0.0015 | 48.3 | 41.67 | 202.3 | 34.7 | inhibition at 100 ppm [2]: 99.5%
COc1c(O[C@@H]2O[C@H](CO)[C@@H](O)[C@H](O)[C@H]2O)cc2occ(-c3ccc(O)cc3)c(=O)c2c1O [화합물 2, tectoridin] | 0.0024 | 63.1 | 38.95 | 221.9 | 47.7 | inhibition at 100 ppm [2]: 99.5%
COc1c(O)cc2occ(-c3ccc(O)cc3)c(=O)c2c1O [화합물 3, tectorigenin] | 0.0012 | 32.7 | 34.75 | 208.1 | 38.5 | inhibition at 10 ppm [2]: 51.9%
